Converted amounts (≈) assume the structure as drawn.
Assays:
[1] = biological target: T1, PBP3 from Escherichia coli (K-12) (Escherichia coli, UniProt P0AD68); experiment: Bocillin-FL fluorescence polarization competition binding, E. coli PBP3
T1 construct: made in house
Outline: (§1)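 Purified PBP was preincubated with inhibitor (E. coli PBP3 1.5 μM, 30 min; P. aeruginosa PBP3 0.75 μM, A. baumannii PBP3 0.2 μM and PBP1a 1 μM, 15 min), then Bocillin-FL (0.1 μM; 0.05 μM for PBP1a) added and FP read up to 60 min. EC50 = 50% loss of bound probe.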

[2] = biological target: T2, PBP3 from Pseudomonas aeruginosa (PAO1) (Pseudomonas aeruginosa, UniProt G3XD46); experiment: Bocillin-FL fluorescence polarization competition binding, P. aeruginosa PBP3; details: Binding affinity to P. aeruginosa PBP3; fluorescence polarization competition binding assay using Bocillin-FL; read-out: P. aeruginosa PBP3 Potency
T2 construct: made in house
Outline: as §1

[3] = biological target: T3, PBP3 from Acinetobacter baumannii (ATCC 19606) (Acinetobacter baumannii, UniProt A0ABX6CK25); experiment: Bocillin-FL fluorescence polarization competition binding, A. baumannii PBP3; details: fluorescence polarization competition binding assay using Bocillin-FL; read-out: A. baumannii PBP3 Potency
T3 sequence (A0ABX6CK25 64-610): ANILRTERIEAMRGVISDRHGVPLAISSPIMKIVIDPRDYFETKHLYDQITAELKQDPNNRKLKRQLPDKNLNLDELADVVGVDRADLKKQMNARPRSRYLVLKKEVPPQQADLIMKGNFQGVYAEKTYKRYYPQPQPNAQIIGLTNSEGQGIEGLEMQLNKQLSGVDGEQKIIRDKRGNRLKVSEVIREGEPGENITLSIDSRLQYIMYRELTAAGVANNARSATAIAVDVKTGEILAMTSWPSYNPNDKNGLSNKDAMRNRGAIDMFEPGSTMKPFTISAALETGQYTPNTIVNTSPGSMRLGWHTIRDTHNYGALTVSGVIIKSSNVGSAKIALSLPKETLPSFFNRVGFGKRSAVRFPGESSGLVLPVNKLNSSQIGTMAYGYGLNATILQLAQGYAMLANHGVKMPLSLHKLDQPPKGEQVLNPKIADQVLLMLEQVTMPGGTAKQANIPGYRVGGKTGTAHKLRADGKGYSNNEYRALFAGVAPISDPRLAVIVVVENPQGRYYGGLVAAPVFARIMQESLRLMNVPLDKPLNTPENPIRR
Outline: as §1

A. baumannii ATCC 17978 = experiment: microbe, parasite or virus in culture; format: cell-based; details: Acinetobacter baumannii, ATCC17978, read-out: MIC, A. baumannii ATCC 17978
[4] = tested on: P. aeruginosa (ΔmexAB-oprM); experiment: Broth microdilution MIC in iron-depleted CAMHB (IDM); format: cell-based; details: Pseudomonas aeruginosa; iron-depleted CAMHB (IDM); […]; read-out: Minimum inhibitory concentration, P. aeruginosa ΔmexAB-oprM
P. aeruginosa CDC-0054 = experiment: microbe, parasite or virus in culture; format: cell-based; details: Pseudomonas aeruginosa, CDC0054, read-out: Minimum inhibitory concentration, P. aeruginosa CDC-0054
P. aeruginosa CDC-0090 = experiment: microbe, parasite or virus in culture; format: cell-based; details: Pseudomonas aeruginosa, CDC0090, read-out: Minimum inhibitory concentration, P. aeruginosa CDC-0090
A. baumannii 1258916 = experiment: microbe, parasite or virus in culture; format: cell-based, Acinetobacter baumannii; details: Acinetobacter baumannii, 1258916, read-out: MIC, A. baumannii 1258916
A. baumannii CDC-0045 = experiment: microbe, parasite or virus in culture; format: cell-based; details: Acinetobacter baumannii, CDC0045, read-out: MIC, A. baumannii CDC-0045
A. baumannii CDC-0083 = experiment: microbe, parasite or virus in culture; format: cell-based; details: Acinetobacter baumannii, CDC0083, read-out: MIC, A. baumannii CDC-0083
[5] = tested on: B. thailandensis ATCC 700388; experiment: microbe, parasite or virus in culture; format: cell-based; details: Burkholderia thailandensis, ATCC700388, read-out: Minimum inhibitory concentration (MIC), B. thailandensis ATCC 700388

T1 sequence (P0AD68 1-577): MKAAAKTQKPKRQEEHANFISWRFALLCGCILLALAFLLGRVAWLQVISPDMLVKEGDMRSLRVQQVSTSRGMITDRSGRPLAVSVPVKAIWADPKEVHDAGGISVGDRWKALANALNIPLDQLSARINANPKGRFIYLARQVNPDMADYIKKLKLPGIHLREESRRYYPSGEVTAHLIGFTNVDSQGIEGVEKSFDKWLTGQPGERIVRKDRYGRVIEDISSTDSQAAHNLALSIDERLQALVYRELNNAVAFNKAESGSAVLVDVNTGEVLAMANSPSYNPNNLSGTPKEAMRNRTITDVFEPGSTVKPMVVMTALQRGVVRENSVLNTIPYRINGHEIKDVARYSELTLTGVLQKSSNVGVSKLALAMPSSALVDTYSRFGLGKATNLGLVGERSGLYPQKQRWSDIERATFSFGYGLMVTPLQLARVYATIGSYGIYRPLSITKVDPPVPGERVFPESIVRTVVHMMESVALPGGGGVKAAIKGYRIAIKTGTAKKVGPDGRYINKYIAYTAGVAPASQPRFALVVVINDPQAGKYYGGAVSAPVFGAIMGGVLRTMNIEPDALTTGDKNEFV
T2 sequence (G3XD46 whole entry): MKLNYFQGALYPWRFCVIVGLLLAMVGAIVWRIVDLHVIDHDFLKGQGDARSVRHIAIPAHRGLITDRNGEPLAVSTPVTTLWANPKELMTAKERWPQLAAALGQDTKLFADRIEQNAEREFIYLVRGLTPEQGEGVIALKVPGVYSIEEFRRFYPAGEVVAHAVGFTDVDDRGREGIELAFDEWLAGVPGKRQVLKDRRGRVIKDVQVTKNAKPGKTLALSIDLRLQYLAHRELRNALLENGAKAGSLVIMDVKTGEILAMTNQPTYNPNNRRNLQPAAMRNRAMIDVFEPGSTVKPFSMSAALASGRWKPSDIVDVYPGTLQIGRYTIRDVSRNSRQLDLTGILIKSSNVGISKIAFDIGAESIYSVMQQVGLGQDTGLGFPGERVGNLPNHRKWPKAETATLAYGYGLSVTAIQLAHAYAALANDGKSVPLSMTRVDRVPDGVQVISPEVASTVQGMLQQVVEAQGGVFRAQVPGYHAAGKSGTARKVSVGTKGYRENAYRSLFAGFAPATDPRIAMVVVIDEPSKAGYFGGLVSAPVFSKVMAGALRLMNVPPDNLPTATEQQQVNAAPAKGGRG

| Compound | EC50 [1] [µM] | IC50 [2] [µM] | IC50 [3] [µM] | MIC (A. baumannii ATCC 17978) [µg/mL] | MIC [4] [µg/mL] | MIC (P. aeruginosa CDC-0054) [µg/mL] | MIC (P. aeruginosa CDC-0090) [µg/mL] | MIC (A. baumannii 1258916) [µg/mL] | MIC (A. baumannii CDC-0045) [µg/mL] | MIC (A. baumannii CDC-0083) [µg/mL] | MIC [5] [µg/mL] |
| --- | --- | --- | --- | --- | --- | --- | --- | --- | --- | --- | --- |
| O=C(NCCCN1CCN(C(=O)NC(C(=O)N[C@H]2Cc3ccc(F)c(C(=O)O)c3OB2O)c2cc(F)c(O)c(O)c2Cl)C(=O)C1=O)c1cc(F)ncc1F (mixture of isomers) [Example 405] | < 10 | < 10 | < 10 | < 1 | < 1 | 2 to 4 | 2 to 4 | 2 to 4 | < 1 | < 1 | < 1 |
| O=C(NCCCN1CCN(C(=O)N[C@@H](C(=O)N[C@H]2Cc3ccc(F)c(C(=O)O)c3OB2O)c2cc(F)c(O)c(O)c2Cl)C(=O)C1=O)c1cc(F)nc(F)c1 (racemic) [Example 401] | < 10 | < 10 | < 10 | < 1 | < 1 | < 1 | < 1 | < 1 | < 1 | 2 to 4 (≈ 2.56 to 5.12 µM) | > 128 |
| O=C(NCCCN1CCN(C(=O)N[C@@H](C(=O)N[C@H]2Cc3ccc(F)c(C(=O)O)c3OB2O)c2cc(F)c(O)c(O)c2Cl)C(=O)C1=O)c1ccc(O)cc1F (racemic) [Example 417] | < 10 | < 10 | 10 to 50 | < 1 | < 1 | 8 to 16 (≈ 10.3 to 20.6 µM) | 8 to 16 (≈ 10.3 to 20.6 µM) | < 1 | < 1 | > 128 | > 128 |
| O=C(NCCCN1CCN(C(=O)N[C@@H](C(=O)N[C@H]2Cc3ccc(F)c(C(=O)O)c3OB2O)c2cc(F)c(O)c(O)c2Cl)C(=O)C1=O)c1c(F)cc(O)cc1F (racemic) [Example 420] | < 10 | < 10 | < 10 | < 1 | < 1 | 2 to 4 (≈ 2.51 to 5.03 µM) | < 1 | 2 to 4 (≈ 2.51 to 5.03 µM) | < 1 | > 128 | 2 to 4 (≈ 2.51 to 5.03 µM) |
| CS(=O)(=O)N1CCN(C(=O)N[C@@H](C(=O)N[C@H]2Cc3cccc(C(=O)O)c3OB2O)c2ccc(P(=O)(O)O)cc2)C1=O (single isomer, unassigned) [Example 6] | < 10 | < 10 | < 10 | 2 to 4 (≈ 3.28 to 6.55 µM) | 8 to 16 (≈ 13.1 to 26.2 µM) | > 128 | > 128 | 32 to 64 (≈ 52.4 to 105 µM) | > 128 | > 128 | 8 to 16 (≈ 13.1 to 26.2 µM) |
| O=C(NCCCN1CCN(C(=O)N[C@H](C(=O)N[C@H]2Cc3ccc(F)c(C(=O)O)c3OB2O)c2cc(F)c(O)c(O)c2Cl)C(=O)C1=O)c1ccc(O)cc1Cl (single isomer, unassigned) [Example 470] | 50 to 250 | 10 to 50 | 10 to 50 | < 1 | < 1 | < 1 | 2 to 4 (≈ 2.52 to 5.04 µM) | > 128 | > 128 | > 128 | > 128 |
| O=C(NCCCN1CCN(C(=O)N[C@@H](C(=O)N[C@H]2Cc3ccc(F)c(C(=O)O)c3OB2O)c2cc(F)c(O)c(O)c2Cl)C(=O)C1=O)c1ccc(O)cc1Cl (single isomer, unassigned) [Example 471] | < 10 | < 10 | < 10 | < 1 | < 1 | < 1 | < 1 | < 1 | < 1 | > 128 | < 1 |
| O=C(NCCCN1CCN(C(=O)N[C@H](C(=O)N[C@H]2Cc3ccc(F)c(C(=O)O)c3OB2O)c2cc(F)c(O)c(O)c2Cl)C(=O)C1=O)c1cc(F)c(O)cc1F (single isomer, unassigned) [Example 472] | 50 to 250 | 10 to 50 | < 10 | < 1 | < 1 | < 1 | 2 to 4 (≈ 2.51 to 5.03 µM) | 8 to 16 (≈ 10.1 to 20.1 µM) | 8 to 16 (≈ 10.1 to 20.1 µM) | > 128 | 2 to 4 (≈ 2.51 to 5.03 µM) |
| O=C(NCCCN1CCN(C(=O)N[C@@H](C(=O)N[C@H]2Cc3ccc(F)c(C(=O)O)c3OB2O)c2cc(F)c(O)c(O)c2Cl)C(=O)C1=O)c1cc(F)c(O)cc1F (single isomer, unassigned) [Example 473] | < 10 | < 10 | < 10 | < 1 | < 1 | < 1 | 2 to 4 (≈ 2.51 to 5.03 µM) | 2 to 4 (≈ 2.51 to 5.03 µM) | < 1 | > 128 | < 1 |
| O=C(NCCCN1CCN(C(=O)NC(C(=O)N[C@H]2Cc3ccc(F)c(C(=O)O)c3OB2O)c2cc(F)c(O)c(O)c2Cl)C(=O)C1=O)c1ccc(F)c(O)c1Cl (stereo partly drawn) [Example 412, (3R)-3-(2-(4-(3-(2-chloro-4-fluoro-3-hydroxybenzamido)propyl)-2,3-dioxopiperazine-1-carboxamido)-2-(2-chloro-5-fluoro-3,4-dihydroxyphenyl)acetamido)-7-fluoro-2-hydroxy-3,4-dihydro-2H-benzo[e][1,2]oxaborinine-8-carboxylic acid] | < 10 | < 10 | < 10 | < 1 |  | < 1 | 2 to 4 (≈ 2.46 to 4.92 µM) | 2 to 4 (≈ 2.46 to 4.92 µM) | 2 to 4 (≈ 2.46 to 4.92 µM) | 8 to 16 (≈ 9.85 to 19.7 µM) | 2 to 4 (≈ 2.46 to 4.92 µM) |
| O=C(O)c1c(F)ccc2c1OB(O)[C@@H](NC(=O)C(NC(=O)N1CCN(C3CCN(C(=O)c4ccc(O)cc4)CC3)C(=O)C1=O)c1cc(F)c(O)c(O)c1Cl)C2 (stereo partly drawn) [Example 427, (3R)-3-(2-(2-chloro-5-fluoro-3,4-dihydroxyphenyl)-2-(4-(1-(4-hydroxybenzoyl)piperidin-4-yl)-2,3-dioxopiperazine-1-carboxamido)acetamido)-7-fluoro-2-hydroxy-3,4-dihydro-2H-benzo[e][1,2]oxaborinine-8-carboxylic acid] | < 10 | < 10 | < 10 | < 1 | < 1 | 2 to 4 (≈ 2.54 to 5.09 µM) | 2 to 4 (≈ 2.54 to 5.09 µM) | < 1 | < 1 |  | < 1 |
